Patent publication US10981932B2, “Macrocyclic indole derivatives” (Bayer Aktiengesellschaft, priority 2016, dated 2021)

How the values were obtained:
[1] = target: MCL-1 (Homo sapiens, UniProt Q07820); test: Protein-protein interaction assay MCL-1/Noxa BH3 peptide (MCL-1 assay), TR-FRET; format: binding; conditions: MBP-MCL-1 / Noxa BH3-derived peptide, median
Summary of the method: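 Steady-state competition, MCL-1/Noxa BH3, TR-FRET readout; 1 nM MBP-MCL-1, 11-point dose series 0.1 nM–20 μM; overnight 4 °C equilibration; 4-parameter IC50.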

[2] = test system: SUDHL5; test: Induction of caspase-3/7 activity (Caspase-Glo 3/7), SUDHL5; format: cell-based; conditions: Homo sapiens, SU-DHL-5, 3 h, caspase-3/7 induction, SUDHL5 cells, 3 h treatment; median
Summary of the method: (§1)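 A 3 h, 37 °C compound incubation precedes the Caspase-Glo 3/7 read. After subtracting medium-only signal, EC50s are fitted against the reference compound's maximal caspase induction.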

[3] = test system: SUDHL10; test: Induction of caspase-3/7 activity (Caspase-Glo 3/7), SUDHL10; format: cell-based; conditions: Homo sapiens, SU-DHL10, 3 h, caspase-3/7 induction, SUDHL10 cells, 3 h treatment; median
Summary of the method: as §1

[4] = test system: SUDHL10; test: Anti-proliferative effect (CellTiter-Glo, 72 h), SUDHL10; format: cell-based; conditions: Homo sapiens, SU-DHL10, 72 h, SUDHL10 cells, antiproliferation, 72 h incubation, median, read-out: Antiproli SUDHL10 [M] (median)
Summary of the method: (§2)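 Endpoint: CellTiter-Glo luminescence, 10 min after reagent addition. Treatment ran 72 h at 37 °C, humidified. Growth was referenced to a separately plated day 0 plate.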

[5] = test system: OPM2; test: Anti-proliferative effect (CellTiter-Glo, 72 h), OPM2; format: cell-based; conditions: Homo sapiens, OPM-2, 72 h, OPM2 cells, median, read-out: IC50 antiproliferation assay OPM2 [M] (median)
Experimental: Assessment of the Anti-Proliferative Effect of Compounds in Different Cell Lines
The impact of compounds on the proliferation of different cell lines was assessed using the CellTiter-Glo® Luminescent Cell Viability reagent from Promega (G7573). Of note, SUDHL10 and SUDHL5 (DLBCL), NCI-H929 (Multiple Myeloma), A2780 (ovarian carcinoma) as well as MV-4-11(AML) cells are sensitive to MCL-1 inhibition.
In parallel, cells were plated in a reference (day 0) plate for time zero determination.
Rim wells were excluded. The cells were incubated for 72 h hours in a humidified incubator at 37° C. The day 0 plate was measured by adding 30 μl/well of CTG solution (CellTiter-Glo® Luminescent Cell Viability reagent, Promega G7573) to time zero wells in the reference plate followed by a 10 minutes incubation and luminescence reading at 0.1 ms, using the PHERAstar FS microplate reader (BMG Labtech).
After 72 h incubation, the treated plates were measured in the same way as the day 0 plate mentioned above.

[6] = test system: A2780; test: Anti-proliferative effect (CellTiter-Glo, 72 h), A2780; format: cell-based; conditions: Homo sapiens, A2780, 72 h, A2780 cells, median, read-out: IC50 antiproliferation assay A2780 [M] (median)
Summary of the method: as §2

[7] = test system: SUDHL5; test: Induction of cytotoxicity (CellTiter-Glo, 5 h), SUDHL5; conditions: Homo sapiens, SU-DHL-5, 5 h, read-out: Cytotox SUDHL5 [M] (median), SUDHL5 cells, cytotoxicity induction, CellTiter-Glo, 5 h incubation, median
[8] = test system: SUDHL10; test: Induction of cytotoxicity (CellTiter-Glo, 5 h), SUDHL10; conditions: Homo sapiens, SU-DHL10, 5 h, read-out: Cytotox SUDHL10 [M] (median), SUDHL10 cells, cytotoxicity induction, CellTiter-Glo, 5 h incubation, median

Sequence of MCL-1 (Q07820 whole entry): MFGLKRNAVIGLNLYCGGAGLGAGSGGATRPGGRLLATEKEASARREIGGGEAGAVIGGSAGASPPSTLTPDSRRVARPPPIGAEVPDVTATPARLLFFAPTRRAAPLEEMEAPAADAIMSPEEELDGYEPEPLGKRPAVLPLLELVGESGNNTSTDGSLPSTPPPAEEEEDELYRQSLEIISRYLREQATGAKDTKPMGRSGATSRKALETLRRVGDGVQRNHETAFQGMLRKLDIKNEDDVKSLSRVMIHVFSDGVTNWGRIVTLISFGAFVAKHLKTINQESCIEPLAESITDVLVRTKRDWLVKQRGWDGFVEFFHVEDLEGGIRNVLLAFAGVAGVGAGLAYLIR

Row | IC50 [1] | EC50 [2] | EC50 [3] | IC50 [4] | IC50 [6] | Structure (SMILES) | IC50 [5] | IC50 [7] | IC50 [8]
1 | 49 nM | > 33 µM | > 33 µM | 2e-05 M | > 3.3e-05 M | COCCn1nc2c(c1CN1CCOCC1)-c1cccc3c(CCCOc4cccc5ccccc45)c(C(=O)O)n(c13)CCCN(C)C2 (racemic) [Example 056, (rac)-10-(2-methoxyethyl)-7-methyl-11-(morpholin-4-ylmethyl)-1-[3-(naphthalen-1-yloxy)propyl]-4,5,6,7,8,10-hexahydropyrazolo[3′,4′:7,8][1,5]diazecino[9,10,1-hi]indole-2-carboxylic Acid] | > 3.3e-05 M | > 3.3e-05 M | > 3.3e-05 M
2 | 28.5 nM | > 33 µM | 29 µM | 6.96e-06 M | 2.8e-05 M | Cn1nc2c(c1CN1CCOCC1)-c1cccc3c(CCCOc4cccc5ccccc45)c(C(=O)O)n(c13)C/C=C\COC2 (racemic) [Example 066, (rac)-(11Z)-2-Methyl-3-(morpholin-4-ylmethyl)-7-[3-(naphthalen-1-yloxy)propyl]-2,10,13,15-tetrahydropyrazolo[4′,3′:9,10][1,6]oxazacycloundecino[8,7,6-hi]indole-8-carboxylic Acid] | > 3.3e-05 M | > 3.3e-05 M | > 3.3e-05 M
3 | 22.1 nM | > 33 µM | > 33 µM | 5.38e-06 M | 2.72e-06 M | Cc1c2c(nn1C)CN(C)CCCCn1c(C(=O)O)c(CCCOc3cccc4ccccc34)c3cccc-2c31 (racemic) [Example 067, (rac)-2,3,14-trimethyl-7-[3-(naphthalen-1-yloxy)propyl]-10,11,12,13,14,15-hexahydro-2H-pyrazolo[3′,4′:8,9][1,6]diazacycloundecino[10,11,1-hi]indole-8-carboxylic Acid] | 1.48e-05 M | > 3.3e-05 M | > 3.3e-05 M
4 | 8280 nM | > 33 µM | > 33 µM | > 3.3e-05 M | 2.21e-05 M | COc1cc2cc(c1)-c1cccc3c(CCCOc4cccc5c4CCCC5)c(C(=O)O)n(c13)CCCCCO2 (racemic) [Example 116, (rac)-12-Methoxy-1-[3-(5,6,7,8-tetrahydronaphthalen-1-yloxy)propyl]-5,6,7,8-tetrahydro-4H-10,14-(metheno)[1,7]oxazacyclotetradecino[9,8,7-hi]indole-2-carboxylic Acid] | 1.79e-05 M | > 3.3e-05 M | > 3.3e-05 M
5 | 633 nM | > 33 µM | > 33 µM | > 3.3e-05 M | > 3.3e-05 M | Cc1ccc2cc1-c1cccc3c(CCCOc4cccc5ccccc45)c(C(=O)O)n(c13)CCOCCO2 (racemic) [Example 117, (rac)-13-Methyl-1-[3-(naphthalen-1-yloxy)propyl]-4,5,7,8-tetrahydro-10,14-(metheno)[1,4,7]dioxazacyclotetradecino[9,8,7-hi]indole-2-carboxylic Acid] | > 3.3e-05 M | > 3.3e-05 M | > 3.3e-05 M

Second part, the compound before the results:

Row | Structure (SMILES) | IC50 [1] | EC50 [2] | EC50 [3] | IC50 [4] | IC50 [6] | IC50 [5] | IC50 [7] | IC50 [8]
6 | COc1cc2cc(c1)-c1cccc3c(CCCOc4cccc5ccccc45)c(C(=O)O)n(c13)CCOCCO2 (racemic) [Example 1-119, (rac)-12-Methoxy-1-[3-(1-naphthyloxy)propyl]-4,5,7,8-tetrahydro-10,14-(metheno)[1,4,7]dioxazacyclotetradecino[9,8,7-hi]indole-2-carboxylic Acid] | 2310 nM | > 33 µM | > 33 µM | > 3.3e-05 M | > 3.3e-05 M | > 3.3e-05 M | > 3.3e-05 M | > 3.3e-05 M
7 | Cn1nc(COc2ccc(N3CCN(CC(=O)O)CC3)cc2)c2c1COCCCCn1c(C(=O)O)c(CCCOc3cccc4ccccc34)c3cccc-2c31 (racemic) [Example 1-120, (rac)-3-({4-[4-(Carboxymethy)piperazin-1-yl]phenoxy}methyl)-1-methyl-7-[3-(naphthalen-1-yloxy)propyl]-1,10,11,12,13,15-hexahydropyrazolo[4′,3′:9,10][1,6]oxazacycloundecino[8,7,6-hi]indole-8-carboxylic Acid] | 4.66 nM | > 33 µM | > 33 µM | > 3.3e-05 M | > 3.3e-05 M | > 3.3e-05 M | > 3.3e-05 M | > 3.3e-05 M
8 | COc1cc2cc(c1)-c1cccc3c(CCCOc4cccc5ccccc45)c(C(=O)O)n(c13)CCCCCO2 (racemic) [Example 1-122, (rac)-12-Methoxy-1-[3-(naphthalen-1-yloxy)propyl]-5,6,7,8-tetrahydro-4H-10,14-(metheno)[1,7]oxazacyclotetradecino[9,8,7-hi]indole-2-carboxylic Acid] | 6880 nM | > 33 µM | > 33 µM | > 3.3e-05 M | 2.8e-05 M | 2.77e-05 M | > 3.3e-05 M | > 3.3e-05 M
9 | CN(C)S(=O)(=O)N1CCN(c2ccc(OCc3nn(C)c4c3-c3cccc5c(CCCOc6cccc7ccccc67)c(C(=O)O)n(c35)CCCN(Cc3ccccc3)C4)cc2)CC1 (racemic) [Example 004, (rac)-(7-benzyl-11-({4-[4dimethylsulfamoyl)piperazin-1-yl]phenoxy}methyl)-9-methyl-1-[3-(1-naphthyloxy)propyl]4,5,6,7,8,9-hexahydropyrazolo[3′,4′:7,8][1,5]diazecino[9,10,1-hi]indole-2-carboxylic Acid] | 117 nM | 12.5 µM | 25.8 µM | 2.04e-06 M | 7.13e-06 M | 1.09e-05 M | 1.47e-05 M | 2.57e-05 M
10 | Cc1nn(C)c2c1-c1cccc3c(CCCOc4cccc5c4CCCC5)c(C(=O)O)n(c13)CCCOC2 (racemic) [Example 005, (rac)-9,11-dimethyl-1-[3-(5,6,7,8-tetrahydronaphthalen-1-yloxy)propyl]-5,6,8,9-tetrahydro-4H-pyrazolo[4′,3′:8,9][1,5]oxazecino[7,6,5-hi]indole-2-carboxylic Acid] | 66 nM | > 33 µM | > 33 µM | > 3.3e-05 M | > 3.3e-05 M | > 3.3e-05 M | > 3.3e-05 M | > 3.3e-05 M
11 | Cc1ccc2cccc(OCCCc3c(C(=O)O)n4c5c(cccc35)-c3c(C)nn(C)c3COCCCC4)c2c1 (racemic) [Example 012, (rac)-1,3-dimethyl-7-{3-[(7-methyl-1-naphthyl)oxy]propyl}-1,10,11,12,13,15-hexahydropyrazolo[4′,3′:9,10][1,6]oxazacycloundecino[8,7,6-hi]indole-8-carboxylic Acid] | 27.4 nM | > 33 µM | > 33 µM | 7.15e-06 M | 3.13e-05 M | 2.17e-05 M | 3.14e-05 M | > 3.3e-05 M
12 | Cc1cc(OCCCc2c(C(=O)O)n3c4c(cccc24)-c2c(C)nn(C)c2COCCC3)cc(C)c1Cl (racemic) [Example 013, (rac)-1-[3-(4-chloro-3,5-dimethylphenoxy)propyl]-9,11-dimethyl-5,6,8,9-tetrahydro-4H-pyrazolo[4′,3′:8,9][1,5]oxazecino[7,6,5-hi]indole-2-carboxylic Acid] | 34.5 nM | > 33 µM | > 33 µM | 4.83e-06 M | 3.27e-05 M | > 3.3e-05 M | > 3.3e-05 M | > 3.3e-05 M
13 | Cc1nn(C)c2c1-c1cccc3c(CCCOc4ccccc4)c(C(=O)O)n(c13)CCCCOC2 (racemic) [Example 016, (rac)-1,3-dimethyl-7-(3-phenoxypropyl)-1,10,11,12,13,15-hexahydropyrazolo[4′,3′:9,10][1,6]oxazacycloundecino[8,7,6,6-hi]indole-8-carboxylic Acid] | 495 nM | > 33 µM | > 33 µM | > 3.3e-05 M | > 3.3e-05 M | > 3.3e-05 M | > 3.3e-05 M | > 3.3e-05 M
